Assay results published in patent publication US6492356B1, “Acylguanidine derivatives as inhibitors of bone resorption and as vitronectin receptor antagonists” (Aventis Pharma Deutschland GmbH, priority 1997, dated 2002).
pIC50: −log10 of the molar value.

Target: T1, vitronectin receptor αvβ3 (Homo sapiens, UniProt P05106+P06756)
T1 construct: expressed in transfected cells
Assay: Inhibition of binding of 293 cells to human vitronectin (Vn/293 cell test)
Type: cell-based
Settings: 293 cells cotransfected with αv and β3 subunits; plate coated with human vitronectin; 90 min at 37° C.
From the text: Test for the measurement of the inhibition of binding of 293 cells to human vitronectin (Vn/293 cell test)
1. Purification of Human Vitronectin
Human vitronectin is isolated from human plasma and purified by affinity chromatography according to the method of Yatohyo et al., Cell Structure and Function, 1988, 23, 281-292.
293 cells, a human embryonic kidney cell line, which are cotransfected with DNA sequences for the αv and β3 subunits of the vitronectin receptor αvβ3 , are selected for a high rate of expression (>500,000 αvβ3 receptors/cell) according to the FACS method. The selected cells are cultured and sorted again by means of FACS in order to obtain a stable cell line (15 D) with expression rates >1,000,000 copies of αvβ3 per cell.
A Linbro 96-well tissue culture plate with a flat bottom is coated overnight at 4° C. with human vitronectin (0.01 mg/ml, 0.05 ml/well) in phosphate-buffered saline solution (PBS) and then blocked with 0.5% strength BSA (bovine serum albumin). Solutions of the test substances from 10^−10 mol/l to 2×10^−3 mol/l in glucose-containing DMEM medium are prepared and 0.05 ml/well of the solution are added to the plate in each case. The cells which express high levels of αvβ3 (for example 15 D) are suspended in glucose-containing DMEM medium and the suspension is adjusted to a content of 25,000 cells/0.05 ml of medium. 0.05 ml of this cell suspension is added to each well and the plate is incubated at 37° C. for 90 min. The plate is washed three times with warm PBS in order to remove unbound cells. The bound cells are lyzed in citrate buffer (25 mM, pH 5.0) which contains 0.25% Triton X-100. The hexoseamidase substrate p-nitrophenyl-N-acetyl-β-D-glucosaminide is then added and the plate is incubated at 37° C. for 90 min. The reaction is stopped with a glycine (50 mM)/EDTA (5 mM) buffer (pH 10.4) and the absorption of each well is measured at 405-650 nm. The data are analyzed according to standard processes.

T1 sequence (P06756 31-889 limits assumed): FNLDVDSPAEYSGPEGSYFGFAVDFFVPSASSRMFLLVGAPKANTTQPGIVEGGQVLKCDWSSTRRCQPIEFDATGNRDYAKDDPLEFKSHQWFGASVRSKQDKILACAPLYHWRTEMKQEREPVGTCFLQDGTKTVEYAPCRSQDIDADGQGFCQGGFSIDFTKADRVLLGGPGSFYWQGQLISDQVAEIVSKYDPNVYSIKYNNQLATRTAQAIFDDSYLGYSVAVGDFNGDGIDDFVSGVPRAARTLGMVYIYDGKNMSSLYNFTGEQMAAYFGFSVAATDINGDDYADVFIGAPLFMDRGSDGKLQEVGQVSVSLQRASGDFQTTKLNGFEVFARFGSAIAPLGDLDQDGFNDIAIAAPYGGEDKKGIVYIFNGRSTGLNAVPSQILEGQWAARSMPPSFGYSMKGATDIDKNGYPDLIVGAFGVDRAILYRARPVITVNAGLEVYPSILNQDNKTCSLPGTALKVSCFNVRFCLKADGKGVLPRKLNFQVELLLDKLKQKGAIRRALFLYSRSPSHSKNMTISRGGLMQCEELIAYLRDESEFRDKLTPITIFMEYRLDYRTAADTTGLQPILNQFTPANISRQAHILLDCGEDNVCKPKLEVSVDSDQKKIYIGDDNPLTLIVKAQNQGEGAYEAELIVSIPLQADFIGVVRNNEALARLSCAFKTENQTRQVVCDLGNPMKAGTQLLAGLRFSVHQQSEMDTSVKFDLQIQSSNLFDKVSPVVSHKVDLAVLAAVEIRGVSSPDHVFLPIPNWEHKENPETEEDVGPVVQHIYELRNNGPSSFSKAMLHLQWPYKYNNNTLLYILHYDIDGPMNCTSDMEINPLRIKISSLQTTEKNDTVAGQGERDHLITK
T1 sequence (P06756 891-1048 limits assumed): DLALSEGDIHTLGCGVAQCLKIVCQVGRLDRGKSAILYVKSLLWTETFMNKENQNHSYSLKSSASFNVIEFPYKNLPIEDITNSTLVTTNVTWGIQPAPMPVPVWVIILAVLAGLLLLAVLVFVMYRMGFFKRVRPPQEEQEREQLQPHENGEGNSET
T1 sequence (P05106 27-788): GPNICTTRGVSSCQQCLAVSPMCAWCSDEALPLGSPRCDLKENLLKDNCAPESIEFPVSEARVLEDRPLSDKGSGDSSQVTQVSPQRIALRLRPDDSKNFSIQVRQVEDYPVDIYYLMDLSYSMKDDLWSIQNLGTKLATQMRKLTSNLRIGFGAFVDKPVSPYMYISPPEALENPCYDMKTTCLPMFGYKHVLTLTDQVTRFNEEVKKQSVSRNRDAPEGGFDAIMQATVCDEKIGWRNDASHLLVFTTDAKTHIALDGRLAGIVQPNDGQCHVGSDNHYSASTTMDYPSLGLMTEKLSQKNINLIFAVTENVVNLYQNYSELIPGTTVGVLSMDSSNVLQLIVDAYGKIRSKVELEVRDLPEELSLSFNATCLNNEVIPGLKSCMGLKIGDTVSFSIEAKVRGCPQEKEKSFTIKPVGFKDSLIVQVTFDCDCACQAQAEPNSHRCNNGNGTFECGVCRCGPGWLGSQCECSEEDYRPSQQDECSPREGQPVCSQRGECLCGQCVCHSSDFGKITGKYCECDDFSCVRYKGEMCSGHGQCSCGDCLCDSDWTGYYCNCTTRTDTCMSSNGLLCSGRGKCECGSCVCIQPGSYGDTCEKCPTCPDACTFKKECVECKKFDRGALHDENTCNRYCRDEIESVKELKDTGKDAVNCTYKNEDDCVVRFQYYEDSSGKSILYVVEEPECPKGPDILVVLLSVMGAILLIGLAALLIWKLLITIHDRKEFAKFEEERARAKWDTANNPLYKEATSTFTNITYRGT

| SMILES | pIC50 |
| --- | --- |
| O=C(CCCOc1ccc(C[C@H](NC(=O)OCc2ccccc2)C(=O)O)cc1)NC1=NCCN1 [Example 6, (2S)-2-Benzyloxycarbonylamino-3-(4-(3-(4,5-dihydro-1H-imidazol-2-ylcarbamoyl)propyloxy)phenyl)propionic Acid] | 7.49 |
| O=C(COc1ccc(C(=O)NC[C@H](NC(=O)OCc2ccccc2)C(=O)O)cc1)NC1=NCCCN1 [Example 3, (2S )-2-Benzyloxycarbonylamino-3-(4-((1,4,5,6-tetrahydropyrimidin-2-ylcarbamoyl)methyloxy)benzoylamino)propionic Acid] | 5.87 |
| O=C(CCCOc1ccc(C[C@H](NC(=O)OCc2ccccc2)C(=O)O)cc1)NC1=NCCCN1 [Example 1, (2S)-2-Benzyloxycarbonylamino-3-(4-(3-(1,4,5,6-tetrahydropyrimidin-2-ylcarbamoyl)propyloxy)phenyl)propionic Acid] | 7.55 |
| O=C(CCc1ccc(C(=O)NC[C@H](NC(=O)OCc2ccccc2)C(=O)O)cc1)NC1=NCCCN1 [Example 2, (2S)-2-Benzyloxycarbonylamino-3-(4-(2-(1,4,5,6-tetrahydropyrimidin-2-ylcarbamoyl)ethyl)benzoylamino)propionic Acid] | 7.77 |
